Results published in US20150051210A1, “Tyrosine Kinase Inhibitor Combinations and their Use” (Novartis AG, priority 2012, published 2015).

Tests used:
[1] = system: patient-derived non-small cell lung cancer xenograft LXFL 1121; experiment: In vivo anti-tumor efficacy study in xenograft LXFL 1121; settings: for anti-tumor effect compared to vehicle control / Δ tumor volume: Cpd. B 10 mg/kg bid/qd; for anti-tumor effect compared to vehicle control: BGJ398 40 mg/kg qd orally, 18 days; for Δ tumor volume: end values, BGJ398 40 mg/kg qd, control C 309.6
Description: The in vivo anti-tumor efficacy study in the patient-derived non-small cell lung cancer xenograft LXFL 1121 was carried out. Xenografts were grown subcutaneously in nude mice. Eight tumor-bearing mice each were treated with either vehicle control, Cpd. B alone, BGJ398 alone or both drugs in combination at the doses and frequencies indicated. Note that frequency of Cpd. […] Tumor volumes were measured on the indicated days and synergy of the combination treatment was assessed by the method of Clarke, R., Breast Cancer Res. Treat., […].
Mice bearing xenografts derived from this model were randomized to 4 groups that were then treated with a vehicle control, Cpd. B as single agent, BGJ398 as single agent or a combination of both drugs. Cpd. B was commenced at a dose of 10 mg/kg twice daily. BGJ398 was given orally at a dose of 40 mg/kg once daily, and the same regimen for both drugs was used in combination. […] The study was continued in this setup until day 18.
The significance of combination data was assessed using the method presented by Clark (2), which can estimate interactions from limited data. For compound A, B or the combination AB (with control group C), the end values are collected. Antagonism is predicted when the calculation AB/C>A/C×B/C, additive AB/C=A/C×B/C, synergistic interactions are predicted to occur when […].

[2] = system: KYM-1 cells; experiment: Combination assay (concentration matrix, resazurin, Loewe synergy) in KYM-1; type: cell-based; settings: KYM-1, checkerboard layout, monolayer / non-adherent / semi-solid media
Description: Combinatorial anti-proliferative effects of Cpd. B (“B) in the tables below) and BGJ398 (“C” in the tables below) were measured in KYM-1, MG-63, and Hs-683 cells on 96-well-plates using the concentration matrix depicted below:
Cells were grown under three different conditions (see FIG. 7): Experiments labeled “monolayer” were conducted on regular tissue culture plates, allowing cells to adhere and eventually form a monolayer. Cells were seeded on 3 plates per experiment (triplicates) in standard growth media as described above at a density of 5000 per well. Six to eight wells on a separate plate were seeded to quantify the amount of viable cells at the point of compound addition. […] At the same time, viable cells on the separate plate mentioned above were quantified using a resazurin sodium salt dye reduction readout. […] Quantification of Synergy was done using the methods described in G. R. Zimmermann et al., Drug Discovery Today, Vol. 12, No. ½, 2007, pages 34 to 42, and especially J. Lehár et al., Nature Biotechnology Vol. 27, No. 7, 2009, pages 659 to 666, in short by iteratively calculating the Loewe additive response ILoewe (X, Y) at each dose matrix point from the single-agent response curves, and then summing the differences between ILoewe and the experimental data. […]

[3] = system: ERK and AKT phosphorylation in KYM-1, MG-63, Hs-683 cells; experiment: Western blots in KYM-1, MG-63 and Hs-683 cells (data not shown); type: cell-based; settings: 24 h
Description: The indicated cell lines were seeded on 6-well-plates at a density of 500000 cells/well, left for 24 h to attach and then treated with a final concentration of 1 nM of the indicated compounds for another 24 h. Growth media were then removed, cells were washed twice with ice-cold PBS and lysed in 50 mmol/L Tris pH 7.5, 120 mmol/L NaCl, 20 mmol/L NaF, 1 mmol/L EDTA, 6 mmol/L EGTA, 1 mmol/L Benzamidin, 0.2 mmol/L PMSF, 100 mmol/L sodium vanadate, 1% NP-40. The protein concentration of cleared lysates was determined with the BCA Protein Assay Kit. 80 μg protein of each sample was separated by SDS-PAGE on NuPage 4-12% Tris-Bis Midi gels, transferred to a PVDF-membrane, and probed with antibodies as listed above. After washing and incubation with secondary HRP-linked antibodies, bands were visualized using ECL detection reagent.

[4] = Δ tumor volume relative to control group C

Row | Structure (SMILES) | anti-tumor effect compared to vehicle control [1] | Δ tumor volume [1] | B/C [1, 4] | growth suppression [2] | inhibition of own target as single agent (Western blot) [3] | A/C [1, 4]
1 | CCN1CCN(c2ccc(Nc3cc(N(C)C(=O)Nc4c(Cl)c(OC)cc(OC)c4Cl)ncn3)cc2)CC1 [BGJ398, 3-(2,6-dichloro-3,5-dimethoxy-phenyl)-1-{6-[4-(4-ethylpiperazin-1-yl)-phenylamino]-pyrimidin-4-yl}-1-methyl-urea] | strong tumor growth inhibition resulting in stable disease | −16.6 | −0.054 | partial growth suppression | effectively inhibited its own target | –
2 | CNC(=O)c1ccc(-c2cnc3ncc(Cc4ccc5ncccc5c4)n3n2)cc1F [Cpd. B, 2-fluoro-N-methyl-4-[(7-quinolin-6-yl-methyl)-imidazo[1,2-b]triazin-2-yl]benzamide] | very modest, statistically not significant anti-tumor effect | 333.6 | – | no effect | effectively inhibited its own target | 1.078
